Measurements as given in patent US20070098761A1, “Processed fat composition for preventing/ameliorating lifestyle-related diseases” (priority 2003, published 2007).
Where two headings read alike, the source gives them in different places.

Assay: Shelf stability test (accelerating test at 80° C.)
Format: physicochemical
Description: A shelf stability test of glabrene, glabridin, glabrol and 4′-O-methylglabridin in the above MCT solution was carried out as an accelerating test at 80° C. The MCT solution was kept at 80° C. in a water bath, and the contents of glabrene, glabridin, glabrol and 4′-O-methylglabridin were determined after storage for 1, 3 and 5 hours respectively. The shelf stability was expressed in terms of the ratio of the content after storage to the content before storage, assuming that the content of each compound before storage was 100%.
A shelf stability test of the hydrophobic licorice extract in Comparative Example 1 was carried out in an analogous manner.
A shelf stability test of the ethanol solution in Comparative Example 2 was carried out in an analogous manner.

Compound: CC1(C)C=Cc2c(O)ccc(C3=Cc4ccc(O)cc4OC3)c2O1 [Compound 1, glabrene]
- Shelf stability (ratio of content after storage to content before storage) (0 h): 100%

Compound: CC1(C)C=Cc2c(ccc3c2OC[C@@H](c2ccc(O)cc2O)C3)O1 [Compound 2, glabridin]
- Shelf stability (ratio of content after storage to content before storage) (Ethanol solution (Comparative Example 2), 80° C., after 1 hour): 96%
- Shelf stability (ratio of content after storage to content before storage) (Ethanol solution (Comparative Example 2), 80° C., after 3 hour): 94%
- Shelf stability (ratio of content after storage to content before storage) (Ethanol solution (Comparative Example 2), 80° C., after 5 hour): 93%
- Shelf stability (ratio of content after storage to content before storage) (Ethanol solution (Comparative Example 2), 80° C., at the time of start (set to 100%)): 100%
- Shelf stability (ratio of content after storage to content before storage) (Hydrophobic licorice extract (Comparative Example 1), 80° C., after 1 hour): 91%
- Shelf stability (ratio of content after storage to content before storage) (Hydrophobic licorice extract (Comparative Example 1), 80° C., after 3 hours): 88%
- Shelf stability (ratio of content after storage to content before storage) (Hydrophobic licorice extract (Comparative Example 1), 80° C., after 5 hours): 86%
- Shelf stability (ratio of content after storage to content before storage) (Hydrophobic licorice extract (Comparative Example 1), 80° C., at the time of start (set to 100%)): 100%
- Shelf stability (ratio of content after storage to content before storage) (MCT solution (Example 1), 80° C., after 1 hour): 100%
- Shelf stability (ratio of content after storage to content before storage) (MCT solution (Example 1), 80° C., after 3 hours): 101%
- Shelf stability (ratio of content after storage to content before storage) (MCT solution (Example 1), 80° C., after 5 hours): 97%
- Shelf stability (ratio of content after storage to content before storage) (MCT solution (Example 1), 80° C., at the time of start (set to 100%)): 100%
- Stability during storage (in words) (in the ethanol solution, 80° C.): unstable
- Stability during storage (in words) (in the hydrophobic licorice extract, 80° C.): unstable

Compound: CC(C)=CCc1cc([C@@H]2CC(=O)c3ccc(O)c(CC=C(C)C)c3O2)ccc1O [Compound 3, glabrol]
- Stability during storage (in words): stable
- Shelf stability (ratio of content after storage to content before storage) (0 h): 100%

Compound: COc1ccc([C@@H]2COc3c(ccc4c3C=CC(C)(C)O4)C2)c(O)c1 [Compound 4, 4′-O-methylglabridin]
- Shelf stability (ratio of content after storage to content before storage): 100%
- Stability during storage (in words): stable
